From patent publication US7262212B2, “2,3-dihydro-6-nitroimidazo[2,1-b]oxazoles” (Otsuka Pharmaceutical Co., Ltd., priority 2002, dated 2007) come the findings set out here.

Molecules are shown by their SMILES.

Take `C[C@]1(CN2CCC(N3CCN(Cc4ccc(OC(F)(F)F)cc4)CC3)CC2)Cn2cc([N+](=O)[O-])nc2O1`: the melting point is 142 to 143 °C. Then `C[C@]1(CN2CCN(C(=O)N3CC=C(c4ccc(C(F)(F)F)cc4)CC3)CC2)Cn2cc([N+](=O)[O-])nc2O1`, with 168.4 to 171.7 °C. The result for `CN(C(=O)OCc1ccc(Cl)cc1)C1CCN(CC2(C)Cn3cc([N+](=O)[O-])nc3O2)CC1` (stereo not shown) reads 147.2 to 149.2 °C; that for `C[C@]1(CN2CCC(c3ccc(C(F)(F)F)cc3)CC2)Cn2cc([N+](=O)[O-])nc2O1`, 138.7 to 139.9 °C; that for `C[C@]1(CN2CCN(N=Cc3ccc(C(F)(F)F)cc3)CC2)Cn2cc([N+](=O)[O-])nc2O1` [Example 504], 201 to 202.3 °C (dec.). `COc1ccc(CN2CCN(CC3(C)Cn4cc([N+](=O)[O-])nc4O3)C2=O)c(OC)c1` (stereo not shown) returned a melting point of 175 to 175.4 °C. For the compound `CNC(C1CCN(c2ccc(OC(F)(F)F)cc2)CC1)[C@]1(C)Cn2cc([N+](=O)[O-])nc2O1` (stereo partly shown), the melting point was in the range of 127.2 to 129.7 °C.

`CC1(CN2CCN(C(=O)COc3ccccc3)CC2)Cn2cc([N+](=O)[O-])nc2O1` (stereo not shown) registered a melting point of 158 to 160.6 °C. In the case of `C[C@]1(CN2CCN(C(=O)CCCc3ccc(C(F)(F)F)cc3)CC2)Cn2cc([N+](=O)[O-])nc2O1`, the melting point was in the range of 145 to 146 °C. The result for `Cn1c(=O)n(CC2(C)Cn3cc([N+](=O)[O-])nc3O2)c2cc(Cl)ccc21` (stereo not shown) reads 261.9 to 265.4 °C (dec.); that for `CC1(COC(=O)Nc2ccc(Cl)cc2)Cn2cc([N+](=O)[O-])nc2O1` (stereo not shown), 179 to 181 °C; that for `CC(C)(C)OC(=O)N1CCC(N2CCN(C[C@@]3(C)Cn4cc([N+](=O)[O-])nc4O3)CC2)CC1`, 181 to 182 °C.

As to `C[C@]1(CN2CCN(N=Cc3cc4cc(C(F)(F)F)ccc4o3)CC2)Cn2cc([N+](=O)[O-])nc2O1`, the melting point is 190.2 to 191.8 °C.

`C[C@]1(COc2ccc(N3CCN(C(=O)c4ccc(OC(F)(F)F)cc4)CC3)cc2)Cn2cc([N+](=O)[O-])nc2O1` returned a melting point of 201.5 to 203.2 °C. The result for `CC1(Cn2c(=O)oc3ccc(Cl)cc32)Cn2cc([N+](=O)[O-])nc2O1` (stereo not shown) reads 207.6 to 207.9 °C. The result for `CC1(CN2CCN(C(=O)NCc3ccc(C(F)(F)F)cc3)CC2)Cn2cc([N+](=O)[O-])nc2O1` (stereo not shown) reads 201 to 202.5 °C.

As for `O=[N+]([O-])c1cn2c(n1)OC1(CCN(c3ccc(OC(F)(F)F)cc3)CC1)C2`, the melting point is 235.9 to 236.8 °C (dec.). The result for `Cn1c(=O)n(CC2(C)Cn3cc([N+](=O)[O-])nc3O2)c2cc(F)ccc21` (stereo not shown) reads 244.2 to 249.8 °C (dec.); that for `C[C@]1(CN2CCN(C(=O)OCC=Cc3cccc(C(F)(F)F)c3)CC2)Cn2cc([N+](=O)[O-])nc2O1.O=C(O)/C=C\C(=O)O`, 136 to 138 °C. The result for `O=C(CN1CCN(CC(=O)N2CCC3(CC2)Cn2cc([N+](=O)[O-])nc2O3)CC1)Nc1ccc(C(F)(F)F)cc1` reads 133 to 135 °C; that for `CC1(CN2CCN(C(=O)Oc3ccccc3)CC2)Cn2cc([N+](=O)[O-])nc2O1` (stereo not shown), 81 to 85 °C; that for `C[C@]1(CN2CCC(Nc3ccc(OC(F)(F)F)cc3)CC2)Cn2cc([N+](=O)[O-])nc2O1`, 107.5 to 109 °C. On to `C[C@]1(CN2CCN(C(=O)OCC(F)(F)F)CC2)Cn2cc([N+](=O)[O-])nc2O1`, for which the melting point fell in the range of 123.5 to 124 °C. Consider `O=C(OCc1ccc(C(F)(F)F)cc1)N1CCN(C[C@H]2Cn3cc([N+](=O)[O-])nc3O2)CC1`, for which the melting point lay within 125 to 125.5 °C.

`CC1(COCc2ccc(Oc3ccc(OC(F)(F)F)cc3)cc2)Cn2cc([N+](=O)[O-])nc2O1` (stereo not shown): the melting point lay within 107.9 to 109.3 °C.

Compound `CC1(CN2CCCN(C(=O)OCc3ccccc3)CC2)Cn2cc([N+](=O)[O-])nc2O1.Cl` (stereo not shown) displayed a melting point of 115 to 117 °C. The result for `CN(C(=O)OC(C)(C)C)C1CCN(CC2(C)Cn3cc([N+](=O)[O-])nc3O2)CC1` (stereo not shown) reads 198.8 to 201.1 °C; that for `O=C(NCC1Cn2cc([N+](=O)[O-])nc2O1)OCc1ccc(F)cc1` (stereo not shown), 164.6 to 165.1 °C. Then `CN(C(=O)OC[C@@]1(C)Cn2cc([N+](=O)[O-])nc2O1)c1ccc(OC(F)(F)F)cc1`, with 144 to 145 °C; and `CC(C)(C)OC(=O)N1CCN(c2cccc(OC[C@@]3(C)Cn4cc([N+](=O)[O-])nc4O3)c2)CC1`, with 179.5 to 182 °C; and `CC1(CNC(=O)OCc2ccc(OC(F)(F)F)cc2)Cn2cc([N+](=O)[O-])nc2O1` (stereo not shown), with 182.3 to 184.4 °C. Take `CC1(CNC(=O)OCc2ccc(Cl)cc2)Cn2cc([N+](=O)[O-])nc2O1` (stereo not shown): the melting point is 221 to 221.8 °C.

As for `C[C@]1(CN2CCN(S(=O)(=O)Cc3ccc(Cl)cc3)CC2)Cn2cc([N+](=O)[O-])nc2O1`, the melting point lay in the range of 204 to 206 °C. The result for `CCCCCCCCOC(=O)N1CCN(CC2(C)Cn3cc([N+](=O)[O-])nc3O2)CC1` (stereo not shown) reads 138 to 139.4 °C; that for `CN(C(=O)OC[C@@]1(C)Cn2cc([N+](=O)[O-])nc2O1)c1ccc(Cl)cc1`, 131 to 133 °C; that for `CC1(CN2CCN(C(=O)NC3CCCCC3)CC2)Cn2cc([N+](=O)[O-])nc2O1` (stereo not shown), 216.5 to 218.5 °C. The result for `CC1(CN2CCN(C(=O)Cc3ccc(Cl)c(Cl)c3)CC2)Cn2cc([N+](=O)[O-])nc2O1` (stereo not shown) reads 189 to 191 °C.

Compound `CC1(CN2C(=O)C(F)(F)c3ccccc32)Cn2cc([N+](=O)[O-])nc2O1` (stereo not shown) yielded a melting point of 202 to 206 °C. The result for `CC1(COC(=O)N2CCCCC2)Cn2cc([N+](=O)[O-])nc2O1` (stereo not shown) reads 152 to 154 °C; that for `CC(C)(C)OC(=O)N1CC=C(c2ccc(OC[C@@]3(C)Cn4cc([N+](=O)[O-])nc4O3)cc2)CC1`, 183 to 189 °C (dec.). Consider `O=C(OCc1ccc(C(F)(F)F)cc1)N1CCN(C(=O)N2CCC3(CC2)Cn2cc([N+](=O)[O-])nc2O3)CC1`, for which the melting point was 221 to 223 °C. The result for `C[C@]1(CN2CCN(Cc3ccc(OC(F)(F)F)cc3)CC2)Cn2cc([N+](=O)[O-])nc2O1` reads 137 to 138 °C; that for `C[C@]1(CN2CCN(c3cc(-c4ccccc4)nc(-c4ccccc4)n3)CC2)Cn2cc([N+](=O)[O-])nc2O1`, 202.5 to 205.4 °C. Then `CN(C)c1ccc(NC(=O)N2CCC3(CC2)Cn2cc([N+](=O)[O-])nc2O3)cc1`, with 244 to 247 °C (dec.); and `C[C@]1(CN2CCN(c3nc(-c4ccccc4)cc(-c4ccccc4)n3)CC2)Cn2cc([N+](=O)[O-])nc2O1`, with 201.2 to 205.4 °C; and `O=[N+]([O-])c1cn2c(n1)OC(CN1CCN(c3nc4ccccc4o3)CC1)C2` (stereo not shown), with 206 to 209 °C (dec.). `CC1(Cn2nc(C=Cc3ccc(Cl)cc3)oc2=O)Cn2cc([N+](=O)[O-])nc2O1` (stereo not shown) displayed a melting point of 249 to 252 °C.

`Cc1ccc(NC(=O)N2CCN(CC3(C)Cn4cc([N+](=O)[O-])nc4O3)CC2)cc1` (stereo not shown): the melting point was 202 to 203 °C (dec.).

`C[C@]1(CN2CCC(N3CCN(C(=O)OCc4ccc(OC(F)(F)F)cc4)CC3)CC2)Cn2cc([N+](=O)[O-])nc2O1` had a melting point of 110 to 111 °C. For `C[C@]1(COC(=O)N2CCCc3cc(Cl)ccc32)Cn2cc([N+](=O)[O-])nc2O1`, the melting point is 172 to 174 °C.

For the compound `C[C@]1(COc2ccc(N3CCN(C(=O)OCc4cc5cc(Cl)ccc5o4)CC3)cc2)Cn2cc([N+](=O)[O-])nc2O1`, the melting point fell in the range of 195 to 197 °C.

`CC1(CCCN2CCN(c3nc4ccccc4o3)CC2)Cn2cc([N+](=O)[O-])nc2O1` (stereo not shown) yielded a melting point of 172 to 174.4 °C. The result for `CC1(CCSc2nc3ccccc3o2)Cn2cc([N+](=O)[O-])nc2O1` (stereo not shown) reads 174 to 175 °C; that for `C[C@]1(CN2CCN(C(=O)N3CC=C(c4ccc(Cl)cc4)CC3)CC2)Cn2cc([N+](=O)[O-])nc2O1`, 161 to 162 °C.

Regarding `CC1(CN2CCN(C(=O)Cc3ccc(C(F)(F)F)cc3)CC2)Cn2cc([N+](=O)[O-])nc2O1` (stereo not shown), the melting point lay in the range of 168 to 171.4 °C. Then `C[C@@]1(CN2CCN(C(=O)OCc3ccc(F)cc3)CC2)Cn2cc([N+](=O)[O-])nc2O1`, with 167 to 169 °C. In the case of `C[C@]1(CN2CCN(N=Cc3ccc(C(F)(F)F)cc3)CC2)Cn2cc([N+](=O)[O-])nc2O1` [Example 505], the melting point fell in the range of 188.4 to 191.2 °C. Then `CC(C)(C)OC(=O)N1CCN(CC(=O)N2CCC3(CC2)Cn2cc([N+](=O)[O-])nc2O3)CC1`, with 211 to 213 °C; and `C[C@]1(CN2CCC(N3CCN(c4ccc(Cl)cc4)CC3)CC2)Cn2cc([N+](=O)[O-])nc2O1`, with 226 to 228 °C; and `CNC(=O)OC[C@@]1(C)Cn2cc([N+](=O)[O-])nc2O1`, with 175 to 178 °C. The result for `O=[N+]([O-])c1cn2c(n1)OC1(CCN(c3ccc(Cl)cc3)CC1)C2` reads 242 to 245 °C; that for `CN(C[C@@]1(C)Cn2cc([N+](=O)[O-])nc2O1)c1ccc(Cl)cc1`, 174 to 175 °C. Compound `C[C@]1(CN2CCC(N3CCC(Oc4ccc(OC(F)(F)F)cc4)CC3)CC2)Cn2cc([N+](=O)[O-])nc2O1` came in with a melting point of 131 to 132 °C. Then `O=C(NCC1Cn2cc([N+](=O)[O-])nc2O1)OCc1ccc(Cl)cc1` (stereo not shown), with 182.6 to 182.9 °C; and `CC1(CSc2nc3ccccc3o2)Cn2cc([N+](=O)[O-])nc2O1` (stereo not shown), with 163 to 166 °C; and `C[C@]1(CN2CCN(C3CCN(CC=Cc4ccc(OC(F)(F)F)cc4)CC3)CC2)Cn2cc([N+](=O)[O-])nc2O1`, with 157 to 158 °C. The result for `CN(CCOc1ccc(OC(F)(F)F)cc1)CC1(C)Cn2cc([N+](=O)[O-])nc2O1` (stereo not shown) reads 86.4 to 89.2 °C; that for `COc1ccc(CN(C)C[C@@]2(C)Cn3cc([N+](=O)[O-])nc3O2)cc1`, 144 to 147 °C. Then `CC1(COc2ccc(N3CCN(Cc4ccc(C(F)(F)F)cc4)CC3)cc2)Cn2cc([N+](=O)[O-])nc2O1` (stereo not shown), with 171.8 to 173.1 °C; and `CC1(CN2CCN(C(=O)OCc3ccccc3)CC2)Cn2cc([N+](=O)[O-])nc2O1` (stereo not shown), with 130.5 to 132.1 °C.
